Test results: patent US9926297B2, “Bicyclic AZA compounds as muscarinic M1 receptor and/or M4 receptor agonists” (Heptares Therapeutics Limited, priority 2014, dated 2018)
Like-named read-outs stand apart in the source and are kept apart here.

Experiments:
[1] = biological target: T1, human muscarinic M1 receptor (Homo sapiens, UniProt P11229); experiment: Alphascreen Surefire phospho-ERK1/2 functional assay, M1; format: cell-based; conditions: for EC50: phospho-ERK1/2, * = variable results; for Emax: CHO
T1 sequence (P11229 1-460): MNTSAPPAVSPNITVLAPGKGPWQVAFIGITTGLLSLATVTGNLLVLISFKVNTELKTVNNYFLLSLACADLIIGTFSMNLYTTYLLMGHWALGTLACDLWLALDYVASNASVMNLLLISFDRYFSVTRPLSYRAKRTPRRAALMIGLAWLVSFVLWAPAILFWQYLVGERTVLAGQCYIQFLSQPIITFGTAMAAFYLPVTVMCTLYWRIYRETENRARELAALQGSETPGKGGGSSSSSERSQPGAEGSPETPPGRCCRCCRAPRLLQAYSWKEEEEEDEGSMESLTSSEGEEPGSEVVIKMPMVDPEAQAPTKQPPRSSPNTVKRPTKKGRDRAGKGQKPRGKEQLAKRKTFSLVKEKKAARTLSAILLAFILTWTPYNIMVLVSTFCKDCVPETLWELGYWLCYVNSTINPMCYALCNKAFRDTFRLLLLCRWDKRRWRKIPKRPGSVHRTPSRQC

[2] = biological target: T2, human muscarinic M2 receptor (Homo sapiens, UniProt P08172); experiment: Alphascreen Surefire phospho-ERK1/2 functional assay, M2; conditions: for Emax: CHO
T2 sequence (P08172 1-466): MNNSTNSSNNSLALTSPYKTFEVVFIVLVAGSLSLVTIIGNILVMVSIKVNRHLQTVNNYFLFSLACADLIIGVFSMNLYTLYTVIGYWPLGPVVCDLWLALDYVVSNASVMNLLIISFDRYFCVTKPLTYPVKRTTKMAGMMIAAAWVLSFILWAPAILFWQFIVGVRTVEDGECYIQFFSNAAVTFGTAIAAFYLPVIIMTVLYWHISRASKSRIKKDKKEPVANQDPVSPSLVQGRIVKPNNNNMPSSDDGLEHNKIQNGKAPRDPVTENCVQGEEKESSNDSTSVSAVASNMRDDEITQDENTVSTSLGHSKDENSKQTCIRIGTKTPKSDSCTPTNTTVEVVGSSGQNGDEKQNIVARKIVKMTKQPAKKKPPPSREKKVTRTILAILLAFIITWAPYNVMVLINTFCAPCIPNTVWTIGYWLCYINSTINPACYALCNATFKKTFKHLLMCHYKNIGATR

[3] = biological target: T3, human muscarinic M4 receptor (Homo sapiens, UniProt P08173); experiment: Alphascreen Surefire phospho-ERK1/2 functional assay, M4; format: cell-based; conditions: for EC50: phospho-ERK1/2, * = variable results; for Emax: CHO
T3 construct: expressed in transfected cells
T3 sequence (P08173 1-479): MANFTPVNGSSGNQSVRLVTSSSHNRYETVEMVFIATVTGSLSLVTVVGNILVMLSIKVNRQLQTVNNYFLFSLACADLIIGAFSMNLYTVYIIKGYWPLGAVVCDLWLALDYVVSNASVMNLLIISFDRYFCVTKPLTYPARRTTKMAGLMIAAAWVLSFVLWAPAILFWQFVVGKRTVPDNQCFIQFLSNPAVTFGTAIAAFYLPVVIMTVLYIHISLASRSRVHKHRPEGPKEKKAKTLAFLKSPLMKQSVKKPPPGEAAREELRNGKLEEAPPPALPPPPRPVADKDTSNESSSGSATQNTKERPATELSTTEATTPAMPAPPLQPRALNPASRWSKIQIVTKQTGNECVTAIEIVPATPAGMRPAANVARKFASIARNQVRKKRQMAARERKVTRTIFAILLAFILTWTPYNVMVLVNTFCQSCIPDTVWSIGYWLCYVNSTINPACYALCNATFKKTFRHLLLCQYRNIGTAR

[4] = biological target: human muscarinic M3 receptor (Homo sapiens, UniProt P20309); experiment: Alphascreen Surefire phospho-ERK1/2 functional assay, M3; conditions: for Emax: CHO; for EC50: pEC50 M3, CHO cells stably expressing human M3
Chain of human muscarinic M3 receptor (P20309 whole entry): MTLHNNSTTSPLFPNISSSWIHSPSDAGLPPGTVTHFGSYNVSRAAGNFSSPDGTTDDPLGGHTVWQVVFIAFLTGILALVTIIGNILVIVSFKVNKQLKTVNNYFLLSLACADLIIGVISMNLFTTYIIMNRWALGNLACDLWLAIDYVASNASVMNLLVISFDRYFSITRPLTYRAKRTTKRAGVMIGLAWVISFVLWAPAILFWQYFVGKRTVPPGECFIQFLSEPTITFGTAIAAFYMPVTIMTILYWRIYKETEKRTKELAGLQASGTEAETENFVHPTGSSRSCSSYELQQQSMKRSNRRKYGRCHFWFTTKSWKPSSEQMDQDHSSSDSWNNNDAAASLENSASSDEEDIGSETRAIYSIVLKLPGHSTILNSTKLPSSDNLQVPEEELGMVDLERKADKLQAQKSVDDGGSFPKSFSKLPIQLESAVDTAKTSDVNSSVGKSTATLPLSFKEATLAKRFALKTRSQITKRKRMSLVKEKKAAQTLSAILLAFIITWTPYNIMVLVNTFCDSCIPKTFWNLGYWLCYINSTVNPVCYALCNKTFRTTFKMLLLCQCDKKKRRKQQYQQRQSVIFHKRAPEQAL

[5] = CHO cells stably expressing human M1, read-out: pEC50 M1 (converted)
[6] = CHO cells stably expressing human M1, relative to ACh
[7] = CHO cells stably expressing human M2, relative to ACh
[8] = CHO cells stably expressing human M4, read-out: pEC50 M4 (converted)
[9] = CHO cells stably expressing human M4, relative to ACh
[10] = read-out: % Emax cf. ACh, M3, CHO cells stably expressing human M3, relative to ACh
[11] = phospho-ERK1/2, * = variable results
[12] = read-out: % Emax cf. ACh, M1, CHO cells stably expressing human M1, relative to ACh
[13] = read-out: % Emax cf. ACh, M2, CHO cells stably expressing human M2, relative to ACh
[14] = read-out: % Emax cf. ACh, M4, CHO cells stably expressing human M4, relative to ACh

SMILES | EC50 [1, 5] | % Emax cf. ACh, M1 [1, 6] | EC50 [2] | % Emax cf. ACh, M2 [2, 7] | EC50 [3, 8] | % Emax cf. ACh, M4 [3, 9] | Emax [4, 10] | EC50 [4, 11] | pEC50 M2 ([2]; CHO cells stably expressing human M2, phospho-ERK1/2, * = variable results) | pEC50 M3 ([4]; CHO cells stably expressing human M3, phospho-ERK1/2, * = variable results) | % Emax cf. ACh, M3 ([4]; CHO cells stably expressing human M3, relative to ACh) | Emax [1, 12] | Emax [2, 13] | Emax [3, 14] | Emax ([1]; read-out: % Emax cf. ACh, M1) | EC50 ([1]; pEC50 M1, CHO cells stably expressing human M1) | Emax ([2]; read-out: % Emax cf. ACh, M2) | Emax ([3]; read-out: % Emax cf. ACh, M4) | EC50 ([3]; pEC50 M4, CHO cells stably expressing human M4) | Emax ([4]; read-out: % Emax cf. ACh, M3)
CCOC(=O)N1CCC2(CC(N3CCC(n4cc(C)cn4)CC3)C2)C1 (single isomer, unassigned) [1-34 Isomer 1, ethyl 2-[4-(4-methyl-1H-pyrazol-1-yl)piperidin-1-yl]-6-azaspiro[3.4]octane-6-carboxylate] | 501 nM | 49% | > 20000 nM | 10% | 158 nM | 48% | 0% | > 20000 nM |  |  |  |  |  |  |  |  |  |  |  | 
CCOC(=O)N1CCC2(CC(N3CCC(n4cc(C)cn4)CC3)C2)C1 (single isomer, unassigned) [1-34 Isomer 2, ethyl 2-[4-(4-methyl-1H-pyrazol-1-yl)piperidin-1-yl]-6-azaspiro[3.4]octane-6-carboxylate] | 7.94 nM | 130% |  | 43% | 2.51 nM | 117% |  |  | < 4.7 | < 4.7 | 0% |  |  |  |  |  |  |  |  | 
CCOC(=O)N1CCC2(CC(N3CCC(OC)(c4ncc[nH]4)CC3)C2)C1 (single isomer, unassigned) [1-38 Isomer 2, ethyl 2-[4-(1H-imidazol-2-yl)-4-methoxypiperidin-1-yl]-6-azaspiro[3.4]octane-6-carboxylate] |  |  | > 20000 nM |  |  |  |  | > 20000 nM |  |  |  |  |  |  | 31% | 100 nM | 14% | 98% | 794 nM | 19%
COC(=O)N1CCC2(CC(N3CCC(n4cc(C)cn4)CC3)C2)C1 (single isomer, unassigned) [1-42 Isomer 2, methyl 2-[4-(4-methyl-1H-pyrazol-1-yl)piperidin-1-yl]-6-azaspiro[3.4]octane-6-carboxylate] | 39.8 nM |  | 316 nM |  | 6.31 nM |  | 16% | > 20000 nM |  |  |  | 123% | 27% | 76% |  |  |  |  |  | 
CCOC(=O)N1CCC2(CC(N3CCC(c4ccon4)CC3)C2)C1 (single isomer, unassigned) [1-43 Isomer 2, ethyl 2-[4-(1,2-oxazol-3-yl)piperidin-1-yl]-6-azaspiro[3.4]octane-6-carboxylate] | 158 nM |  | > 20000 nM |  | 31.6 nM |  | 8% | > 20000 nM |  |  |  | 32% | 7% | 61% |  |  |  |  |  | 
CCOC(=O)N1CCC2(CC(N3CCC(n4ccc(C)n4)CC3)C2)C1 (single isomer, unassigned) [1-44 Isomer 2, ethyl 2-[4-(3-methyl-1H-pyrazol-1-yl)piperidin-1-yl]-6-azaspiro[3.4]octane-6-carboxylate] | 79.4 nM |  | > 20000 nM |  | 6.31 nM |  | 7% | > 20000 nM |  |  |  | 126% | 80% | 126% |  |  |  |  |  | 
COC(=O)N1CCC2(CC(N3CCC(n4ccc(C)n4)CC3)C2)C1 (single isomer, unassigned) [1-45 Isomer 2, methyl 2-[4-(3-methyl-1H-pyrazol-1-yl)piperidin-1-yl]-6-azaspiro[3.4]octane-6-carboxylate] | 316 nM |  | 1580 nM |  | 20 nM |  | 26% | > 20000 nM |  |  |  | 80% | 56% | 80% |  |  |  |  |  | 

Second part, led by results:

EC50 [1, 5] | % Emax cf. ACh, M1 [1, 6] | EC50 [2] | % Emax cf. ACh, M2 [2, 7] | EC50 [3, 8] | % Emax cf. ACh, M4 [3, 9] | Emax [4, 10] | EC50 [4, 11] | pEC50 M2 ([2]; CHO cells stably expressing human M2, phospho-ERK1/2, * = variable results) | pEC50 M3 ([4]; CHO cells stably expressing human M3, phospho-ERK1/2, * = variable results) | % Emax cf. ACh, M3 ([4]; CHO cells stably expressing human M3, relative to ACh) | Emax [1, 12] | Emax [2, 13] | Emax [3, 14] | SMILES | Emax ([1]; read-out: % Emax cf. ACh, M1) | EC50 ([1]; pEC50 M1, CHO cells stably expressing human M1) | Emax ([2]; read-out: % Emax cf. ACh, M2) | Emax ([3]; read-out: % Emax cf. ACh, M4) | EC50 ([3]; pEC50 M4, CHO cells stably expressing human M4) | Emax ([4]; read-out: % Emax cf. ACh, M3)
> 20000 nM |  | ≥ 20000 nM |  | 15.8 nM |  | 19% | > 20000 nM |  |  |  | 7% | 82% | 81% | CCOC(=O)N1CCC2(CC(N3CCC(c4ccnn4CC)CC3)C2)C1 (single isomer, unassigned) [1-47 Isomer 2, ethyl 2-[4-(1-ethyl-1H-pyrazol-5-yl)piperidin-1-yl]-6-azaspiro[3.4]octane-6-carboxylate] |  |  |  |  |  | 
6310 nM |  | > 20000 nM |  | 79.4 nM |  | 9% | > 20000 nM |  |  |  | 71% | 21% | 92% | CCCn1nccc1C1CCN(C2CC3(CCN(C(=O)OCC)C3)C2)CC1 (single isomer, unassigned) [1-49 Isomer 2, ethyl 2-[4-(1-propyl-1H-pyrazol-5-yl)piperidin-1-yl]-6-azaspiro[3.4]octane-6-carboxylate] |  |  |  |  |  | 
7.94 nM |  | > 20000 nM |  | 2 nM |  | 8% | > 20000 nM |  |  |  | 124% | 20% | 122% | CCOC(=O)N1CCC2(CC(N3CCC(c4cscn4)CC3)C2)C1 (single isomer, unassigned) [1-50 Isomer 2, ethyl 2-[4-(1,3-thiazol-4-yl)piperidin-1-yl]-6-azaspiro[3.4]octane-6-carboxylate] |  |  |  |  |  | 
158 nM |  | > 20000 nM |  | 15.8 nM |  | 20% | > 20000 nM |  |  |  | 102% | 15% | 106% | CCOC(=O)N1CCC2(CC(N3CCC(c4nccn4CC#N)CC3)C2)C1 (single isomer, unassigned) [1-52 Isomer 2, ethyl 2-{4-[1-(cyanomethyl)-1H-imidazol-2-yl]piperidin-1-yl}-6-azaspiro[3.4]octane-6-carboxylate] |  |  |  |  |  | 
1000 nM |  | > 20000 nM |  | 126 nM |  | 3% | > 20000 nM |  |  |  | 30% | 0% | 89% | CCOC(=O)N1CCC2(CC(N3CCC(c4nn(C)cc4C)CC3)C2)C1 (single isomer, unassigned) [1-56 Isomer 2, ethyl 2-[4-(1,4-dimethyl-1H-pyrazol-3-yl)piperidin-1-yl]-6-azaspiro[3.4]octane-6-carboxylate] |  |  |  |  |  | 
2000 nM |  | > 20000 nM |  | 126 nM |  | 7% | > 20000 nM |  |  |  | 63% | 7% | 69% | COC(=O)N1CCC2(CC(N3CCC(c4c(C)cnn4C)CC3)C2)C1 (single isomer, unassigned) [1-57 Isomer 2, methyl 2-[4-(1,4-dimethyl-1H-pyrazol-5-yl)piperidin-1-yl]-6-azaspiro[3.4]octane-6-carboxylate] |  |  |  |  |  | 
794 nM |  | > 20000 nM |  | 31.6 nM |  | 2% | > 20000 nM |  |  |  | 55% | 13% | 93% | CCOC(=O)N1CCC2(CC(N3CCC(c4c(C)cnn4C)CC3)C2)C1 (single isomer, unassigned) [1-58 Isomer 2, ethyl 2-[4-(1,4-dimethyl-1H-pyrazol-5-yl)piperidin-1-yl]-6-azaspiro[3.4]octane-6-carboxylate] |  |  |  |  |  | 
